According to US20130184222A1, “[…] ACTIVE COMPOSITIONS AND THEIR METHODS OF USE” (AGIOS PHARMACEUTICALS, INC, priority 2010, published 2013):

biological target: IDH1 R132H (Homo sapiens, UniProt O75874, R132H); experiment: In vitro assay for IDH1 R132H inhibitors (NADPH/aKG, resazurin detection); format: biochemical; conditions: Table 4A; 0.2 μg/ml IDH1 R132H, 50 minutes at room temperature; read-out: IC50 (uM), IDH1 R132H Inhibition
Method: Assays were conducted in a volume of 76 μl assay buffer (150 mM NaCl, 10 mM MgCl2, 20 mM Tris pH 7.5, 0.03% bovine serum albumin) as follows in a standard 384-well plate: To 25 ul of substrate mix (8 uM NADPH, 2 mM aKG), 1 μl of test compound was added in DMSO. The plate was centrifuged briefly, and then 25 μl of enzyme mix was added (0.2 μg/ml IDH1 R132H) followed by a brief centrifugation and shake at 100 RPM. The reaction was incubated for 50 minutes at room temperature, then 25 μl of detection mix (30 μM resazurin, […]) was added and the mixture further incubated for 5 minutes at room temperature. The conversion of resazurin to resorufin was detected by fluorescent spectroscopy at Ex544 Em590 c/o 590.
The compounds of Formula I set forth in Table 1 and the compounds set forth in Table 2 were tested in this assay and the results set forth below in Table 4A and 4B.

Sequence of IDH1 R132H (O75874 whole entry R132H): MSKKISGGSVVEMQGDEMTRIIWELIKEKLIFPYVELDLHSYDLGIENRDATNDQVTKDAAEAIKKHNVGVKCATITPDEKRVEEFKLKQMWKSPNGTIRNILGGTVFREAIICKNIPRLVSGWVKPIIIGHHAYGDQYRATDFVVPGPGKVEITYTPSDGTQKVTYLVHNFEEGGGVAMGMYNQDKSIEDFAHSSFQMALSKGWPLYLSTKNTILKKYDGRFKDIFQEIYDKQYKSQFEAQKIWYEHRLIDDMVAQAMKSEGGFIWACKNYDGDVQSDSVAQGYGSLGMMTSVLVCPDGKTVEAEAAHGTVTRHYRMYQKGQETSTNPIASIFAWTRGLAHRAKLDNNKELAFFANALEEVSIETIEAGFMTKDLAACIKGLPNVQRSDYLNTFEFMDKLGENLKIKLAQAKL

Row | Structure (SMILES) | IC50
1 | O=C(NC1CCCCC1)C(c1ccncc1)N(C(=O)Cc1cccs1)c1cccc(F)c1 (stereo not drawn) [Compound 76] | 1 to 10 µM
2 | COc1ccc(C(C(=O)NC2CCCCC2)N(C(=O)Cc2cccs2)c2cccc(F)c2)cc1 (stereo not drawn) [Compound 77] | ≥ 100 µM
3 | Cc1ccc(C(C(=O)NC2CCCCC2)N(C(=O)Cc2cccs2)c2cccc(F)c2)cc1 (stereo not drawn) [Compound 78] | 0.1 to 1 µM
4 | O=C(NC1CCCCC1)C(c1ccc(Cl)cc1)N(C(=O)Cc1cccs1)c1cccc(F)c1 (stereo not drawn) [Compound 79] | 0.1 to 1 µM
5 | O=C(NC1CCCCC1)C(c1ccccn1)N(C(=O)Cc1cccs1)c1cccc(F)c1 (stereo not drawn) [Compound 81] | 1 to 10 µM
6 | O=C(NC1CCCCC1)C(Cc1ccccc1)N(C(=O)Cc1cccs1)c1cccc(F)c1 (stereo not drawn) [Compound 82] | 1 to 10 µM
7 | O=C(NC1CCCCC1)C(c1ccc(-n2ccnc2)cc1)N(C(=O)Cc1cccs1)c1cccc(F)c1 (stereo not drawn) [Compound 83] | 10 to 100 µM
8 | O=C(NC1CCCCC1)C(c1ccc(C(F)(F)F)cc1)N(C(=O)Cc1cccs1)c1cccc(F)c1 (stereo not drawn) [Compound 84] | ≥ 100 µM
9 | COCOc1ccc(C(C(=O)NC2CCCCC2)N(C(=O)Cc2cccs2)c2cccc(F)c2)cc1 (stereo not drawn) [Compound 85] | 1 to 10 µM
10 | CCCCc1ccc(C(C(=O)NC2CCCCC2)N(C(=O)Cc2cccs2)c2cccc(F)c2)cc1 (stereo not drawn) [Compound 86] | ≥ 100 µM
11 | O=C(NC1CCCCC1)C(c1ccc(Br)o1)N(C(=O)Cc1cccs1)c1cccc(F)c1 (stereo not drawn) [Compound 87] | 0.1 to 1 µM
12 | CC(C)Cc1ccc(C(C(=O)NC2CCCCC2)N(C(=O)Cc2cccs2)c2cccc(F)c2)cc1 (stereo not drawn) [Compound 88] | ≥ 100 µM
13 | Cc1cccc(C(C(=O)NC2CCCCC2)N(C(=O)Cc2cccs2)c2cccc(F)c2)c1 (stereo not drawn) [Compound 89] | 0.1 to 1 µM
14 | O=C(NC1CCCCC1)C(c1cccnc1)N(C(=O)Cc1cccs1)c1cccc(F)c1 (stereo not drawn) [Compound 90] | 1 to 10 µM
15 | O=C(NC1CCCCC1)C(c1cccc(O)c1)N(C(=O)Cc1cccs1)c1cccc(F)c1 (stereo not drawn) [Compound 91] | 0.1 to 1 µM
16 | O=C(NC1CCCCC1)C(c1ccc(O)cc1)N(C(=O)Cc1cccs1)c1cccc(F)c1 (stereo not drawn) [Compound 92] | 0.1 to 1 µM
17 | CCCCCCCCOc1ccc(C(C(=O)NC2CCCCC2)N(C(=O)Cc2cccs2)c2cccc(F)c2)cc1 (stereo not drawn) [Compound 93] | 0.1 to 1 µM
18 | O=C(NC1CCCCC1)C(c1cccs1)N(C(=O)Cc1cccs1)c1cccc(F)c1 (stereo not drawn) [Compound 94] | 0.1 to 1 µM
19 | CC(=O)c1cccc(C(C(=O)NC2CCCCC2)N(C(=O)Cc2cccs2)c2cccc(F)c2)c1 (stereo not drawn) [Compound 95] | ≥ 100 µM
20 | O=C(NC1CCCCC1)C(c1cccc(C(F)(F)F)c1)N(C(=O)Cc1cccs1)c1cccc(F)c1 (stereo not drawn) [Compound 96] | 1 to 10 µM
21 | Cc1ccccc1C(C(=O)NC1CCCCC1)N(C(=O)Cc1cccs1)c1cccc(Cl)c1Cl (stereo not drawn) [Compound 97] | 1 to 10 µM
22 | Cc1ccccc1C(C(=O)NC1CCCCC1)N(C(=O)Cc1cccs1)c1ccccc1Br (stereo not drawn) [Compound 98] | 0.1 to 1 µM
23 | O=C(NC1CCCCC1)C(c1ccccc1)N(C(=O)Cc1cccs1)c1ccccc1 (stereo not drawn) [Compound 100] | 0.1 to 1 µM
24 | Cc1ccccc1C(C(=O)NC1CCCCC1)N(C(=O)Cc1cccs1)c1ccc2c(c1)OCO2 (stereo not drawn) [Compound 101] | 0.1 to 1 µM

The next lines start with the values.

Row | IC50 | Structure (SMILES)
25 | ≤ 0.1 µM | Cc1ccccc1C(C(=O)NC1CCCCCC1)N(C(=O)Cc1cccs1)c1cccc(F)c1 (stereo not drawn) [Compound 80]
26 | ≤ 0.1 µM | Cc1cccc(N(C(=O)Cc2cccs2)C(C(=O)NC2CCCCC2)c2ccccc2C)c1 (stereo not drawn) [Compound 99]

same assay, conditions: Table 4B; 0.2 μg/ml IDH1 R132H, 50 minutes at room temperature; read-out: IC50, IDH1 R132H Inhibition

Row | Structure (SMILES) | IC50
27 | O=C(NC1CCCCC1)C(c1cc(F)cc(Cl)c1)N(C(=O)Cc1cccs1)c1cccc(F)c1 (stereo not drawn) [Compound 102] | 0.1 to 1 µM
28 | O=C(NC1CCCCC1)C(c1cc(Cl)ccc1Cl)N(C(=O)Cc1cccs1)c1cccc(F)c1 (stereo not drawn) [Compound 103] | 0.1 to 1 µM
29 | O=C(NC1CCCCC1)C(c1c(F)ccc(F)c1Cl)N(C(=O)Cc1cccs1)c1cccc(F)c1 (stereo not drawn) [Compound 105] | 0.1 to 1 µM
30 | O=C(NC1CCCCC1)C(c1cc(F)c(F)cc1F)N(C(=O)Cc1cccs1)c1cccc(F)c1 (stereo not drawn) [Compound 106] | 0.1 to 1 µM
31 | O=C(NC1CCCCC1)C(c1cccc(Cl)c1)N(C(=O)Cc1cccs1)c1cccc(F)c1 (stereo not drawn) [Compound 107] | 0.1 to 1 µM
32 | O=C(NC1CCCCC1)C(c1ccccc1C(F)(F)F)N(C(=O)Cc1cccs1)c1cccc(F)c1 (stereo not drawn) [Compound 108] | 0.1 to 1 µM
33 | Cc1ccccc1C(C(=O)NC(C)(C)C)N(C(=O)Cc1cccs1)c1cccc(F)c1 (stereo not drawn) [Compound 109] | 0.1 to 1 µM
34 | Cc1ccccc1NC(=O)C(c1ccccc1C)N(C(=O)Cc1cccs1)c1cccc(F)c1 (stereo not drawn) [Compound 110] | 0.1 to 1 µM
35 | Cc1ccccc1C(C(=O)NC1CCCCC1)N(C(=O)Cc1cccs1)c1cccnc1 (stereo not drawn) [Compound 111] | 0.1 to 1 µM
36 | CCC(=O)Nc1cccc(N(C(=O)Cc2cccs2)C(C(=O)NC2CCCCC2)c2ccccc2C)c1 (stereo not drawn) [Compound 112] | 0.1 to 1 µM
37 | Cc1ccccc1C(C(=O)NC1CCCCC1)N(C(=O)Cc1cccs1)C1CCCCC1 (stereo not drawn) [Compound 113] | 0.1 to 1 µM
38 | O=C(NC1CCCCC1)C(c1c(Br)ccc(Br)c1F)N(C(=O)Cc1cccs1)c1cccc(F)c1 (stereo not drawn) [Compound 114] | 0.1 to 1 µM
39 | O=C(NC1CCCCC1)C(c1cccc(Br)c1)N(C(=O)Cc1cccs1)c1cccc(F)c1 (stereo not drawn) [Compound 115] | 0.1 to 1 µM
40 | Cc1ccc(N(C(=O)Cc2cccs2)C(C(=O)NC2CCCCC2)c2ccccc2C)cc1Cl (stereo not drawn) [Compound 117] | 0.1 to 1 µM
41 | Cc1ccccc1C(C(=O)NC1CCCCC1)N(C(=O)Cc1cccs1)c1cccc(N2CCOCC2)c1 (stereo not drawn) [Compound 123] | 0.1 to 1 µM
42 | COc1ccc(F)c(C(C(=O)NC2CCCCC2)N(C(=O)Cc2cccs2)c2cccc(F)c2)c1 (stereo not drawn) [Compound 128] | 0.1 to 1 µM
43 | Cc1cccc(C)c1C(C(=O)NC1CCCCC1)N(C(=O)Cc1cccs1)c1cccc(F)c1 (stereo not drawn) [Compound 130] | 0.1 to 1 µM
44 | CC(=O)c1cccc(N(C(=O)Cc2cccs2)C(C(=O)NC2CCCCC2)c2ccccc2C)c1 (stereo not drawn) [Compound 131] | 0.1 to 1 µM
45 | Cc1ccccc1C(C(=O)NC1CCCCC1)N(C(=O)c1c(C)noc1C)c1cccc(F)c1 (stereo not drawn) [Compound 139] | 0.1 to 1 µM
46 | Cc1ccc(N(C(=O)Cc2cccs2)C(C(=O)NC2CCCCC2)c2ccccc2C)cc1 (stereo not drawn) [Compound 144] | 0.1 to 1 µM
47 | Cc1ccccc1C(C(=O)NC1CCCCC1)N(C(=O)Cc1cccs1)c1ccccc1Cl (stereo not drawn) [Compound 147] | 0.1 to 1 µM
48 | Cc1ccccc1C(C(=O)NC1CCCCC1)N(C(=O)Cc1cccs1)c1ccc(Cl)cc1 (stereo not drawn) [Compound 148] | 0.1 to 1 µM
49 | Cc1ccccc1C(C(=O)NC1CCCCC1)N(C(=O)Cc1cccs1)c1ccc2c(c1)OCCO2 (stereo not drawn) [Compound 149] | 0.1 to 1 µM

The next lines start with the values.

Row | IC50 | Structure (SMILES)
50 | ≤ 0.1 µM | O=C(NC1CCCCC1)C(c1ccccc1Br)N(C(=O)Cc1cccs1)c1cccc(F)c1 (stereo not drawn) [Compound 104]
51 | 0.1 to 1 µM | COc1ccccc1C(C(=O)NC1CCCCC1)N(C(=O)Cc1cccs1)c1cccc(F)c1 (stereo not drawn) [Compound 116]
52 | 0.1 to 1 µM | Cc1ccccc1C(C(=O)NC1CCCCC1)N(C(=O)CCl)c1cccc(F)c1 (stereo not drawn) [Compound 118]
53 | 0.1 to 1 µM | Cc1ccccc1C(C(=O)NC1CCCCC1)N(C(=O)CNC1CC1)c1cccc(F)c1 (stereo not drawn) [Compound 119]
54 | 0.1 to 1 µM | Cc1ccccc1C(C(=O)NC1CCCCC1)N(C(=O)CNC1CCC1)c1cccc(F)c1 (stereo not drawn) [Compound 120]
55 | 0.1 to 1 µM | Cc1ccccc1C(C(=O)NC1CCCCC1)N(C(=O)CNC1CCCC1)c1cccc(F)c1 (stereo not drawn) [Compound 121]
56 | 0.1 to 1 µM | Cc1ccccc1C(C(=O)NC1CCCCC1)N(C(=O)Cc1cccs1)c1cccc(C(F)(F)F)c1 (stereo not drawn) [Compound 122]
57 | 0.1 to 1 µM | COc1cccc(N(C(=O)Cc2cccs2)C(C(=O)NC2CCCCC2)c2ccccc2C)c1 (stereo not drawn) [Compound 124]
58 | 0.1 to 1 µM | Cc1ccccc1C(C(=O)NC1CCCCC1)N(C(=O)C1COc2ccccc2O1)c1cccc(F)c1 (stereo not drawn) [Compound 125]
59 | 0.1 to 1 µM | Cc1ccc(F)c(C(C(=O)NC2CCCCC2)N(C(=O)Cc2cccs2)c2cccc(F)c2)c1 (stereo not drawn) [Compound 127]
60 | 0.1 to 1 µM | O=C(NC1CCCCC1)C(c1cc(F)ccc1Br)N(C(=O)Cc1cccs1)c1cccc(F)c1 (stereo not drawn) [Compound 129]
61 | 0.1 to 1 µM | Cc1ccccc1C(C(=O)NC1CCCCC1)N(C(=O)c1ccc2c(c1)OCO2)c1cccc(F)c1 (stereo not drawn) [Compound 132]
62 | 0.1 to 1 µM | Cc1ccccc1C(C(=O)NC1CCCCC1)N(C(=O)CNc1cccc(F)c1)c1cccc(F)c1 (stereo not drawn) [Compound 133]
63 | 0.1 to 1 µM | Cc1ccccc1C(C(=O)NC1CCCCC1)N(C(=O)COc1ccccc1)c1cccc(F)c1 (stereo not drawn) [Compound 136]
64 | 0.1 to 1 µM | O=C(NC1CCCCC1)C(c1cccc(F)c1)N(C(=O)Cc1cccs1)c1cccc(F)c1 (stereo not drawn) [Compound 137]
65 | 0.1 to 1 µM | Cc1ccccc1C(C(=O)NC1CCCCC1)N(C(=O)c1cccs1)c1cccc(F)c1 (stereo not drawn) [Compound 138]
66 | ≤ 0.1 µM | Cc1ccccc1C(C(=O)NC1CCCCC1)N(C(=O)Cc1cccs1)c1cccc(Cl)c1 (stereo not drawn) [Compound 140]
67 | 0.1 to 1 µM | Cc1ccccc1C(C(=O)NC1CCCCC1)N(C(=O)CN1CCCCC1)c1cccc(F)c1 (stereo not drawn) [Compound 141]
68 | 0.1 to 1 µM | C#CC(=O)N(c1cccc(F)c1)C(C(=O)NC1CCCCC1)c1ccccc1C (stereo not drawn) [Compound 142]
69 | 0.1 to 1 µM | Cc1ccccc1C(C(=O)NC1CCCCC1)N(C(=O)CN1CCc2ccccc2C1)c1cccc(F)c1 (stereo not drawn) [Compound 143]
70 | 0.1 to 1 µM | Cc1ccccc1C(C(=O)NC1CCCCC1)N(C(=O)Cc1cccs1)c1ccc(F)cc1 (stereo not drawn) [Compound 145]
71 | 0.1 to 1 µM | Cc1ccccc1C(C(=O)NC1CCCCC1)N(C(=O)Cc1cccs1)c1cccc(Br)c1 (stereo not drawn) [Compound 146]
72 | ≤ 0.1 µM | Cc1ccccc1C(C(=O)NC1CCCCC1)N(C(=O)Cc1ccsc1)c1cccc(F)c1 (stereo not drawn) [Compound 150]
